Results on one compound are retold here after patent US7468394B1, “Sterile pharmaceutical composition and process for a solution of propofol emulsion having microbial growth retardation” (priority 2003, dated 2008).

The text on the data set:
Propofol has limited water solubility, however it is easy to dissolve in soybean oil. As such, it must be incorporated with a solubilizing agent, surfactants or solvents to generate oil-in-water emulsions. The oil component of the emulsion is contained within a shell of the surfactants (egg lecithin), thus forming a “sunflower” structure, which can be seen in Table 1. Currently marketed propofol products are available as oil-in-water emulsions.

Consider `CC(C)c1cccc(C(C)C)c1O` [propofol, 2,6-Diisopropylphenol], for which the “partition coefficient of propofol between soybean oil and water” value was 4,220.
